# Patent US20250228239A1, “MOLECULES HAVING PESTICIDAL UTILITY, AND INTERMEDIATES, COMPOSITIONS, AND PROCESSES, RELATED THERETO” (priority 2024, published 2025)
# Assays:
# Format in all cases: in vivo
# [1] = test system: Beet Armyworm (Spodoptera exigua, LAPHEG); assay: Bioassays on Beet Armyworm (BAW), 128-well diet tray assay; conditions: Spodoptera exigua; Table ABC: Biological Results; species BAW; read-out: BAW
# How it was run: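 Eight diet wells per compound were treated at 50 μg/cm^2 (acetone-water 90:10), dried, then infested with 1–5 second-instar larvae each. After five to seven days at 25 °C under 14:10 photoperiod, mortality was scored and averaged across wells.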
# [2] = test system: Cabbage Looper (Trichoplusia ni, TRIPNI); assay: Bioassays on Cabbage Looper (CL), 128-well diet tray assay; conditions: Trichoplusia ni; Table ABC: Biological Results; species CL; read-out: CL
# How it was run: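 Activity is mean percent mortality over eight wells of second-instar larvae exposed to diet treated at 50 μg/cm^2 for 5–7 days at 25° C.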
# [3] = test system: Yellow Fever Mosquito (Aedes aegypti, AEDSAE); conditions: Table ABC: Biological Results; species YFM
# How it was run: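 Larvae ~1 day old, in liver powder/water; compound from 4000 ppm DMSO stock diluted with water/acetone (90:10); 6 reps; lidded, RT, 3 d; mortality scored per well, rated.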
structure (smiles),measurement,setting,value
"Cc1c(F)cc(NC(=O)[C@H]2[C@H](c3ccc(F)c(Cl)c3)C2(Cl)Cl)cc1C(=O)Nc1ccc(F)cc1 (relative stereo) [F1278, trans-5-(2,2-Dichloro-3-(3-chloro-4-fluorophenyl)cyclopropane-1-carboxamido)-3-fluoro-N-(4-fluorophenyl)-2-methylbenzamide]",pest or weed control at 50 µg/cm2,[1],50 to 100%
same,pest or weed control at 50 µg/cm2,[2],50 to 100%
same,YFM,[3],A (80–100)
"Cc1c(F)cc(NC(=O)[C@H]2[C@H](c3ccc(F)c(Cl)c3)C2(Cl)Cl)cc1C(=O)Nc1ccc(F)cc1F (relative stereo) [F1279, trans-5-(2,2-Dichloro-3-(3-chloro-4-fluorophenyl)cyclopropane-1-carboxamido)-N-(2,4-difluorophenyl)-3-fluoro-2-methylbenzamide]",pest or weed control at 50 µg/cm2,[1],50 to 100%
same,pest or weed control at 50 µg/cm2,[2],50 to 100%
same,YFM,[3],B (More than 0 – Less than 80)
"O=C(Nc1ccc(F)c(NC(=O)C(F)F)c1F)c1cc(NC(=O)[C@H]2[C@H](c3cccc(I)c3)C2(Cl)Cl)ccc1Cl (relative stereo) [F1281, trans-2-chloro-5-(2,2-dichloro-3-(3-iodophenyl)cyclopropane-1-carboxamido)-N-(3-(2,2-difluoroacetamido)-2,4-difluorophenyl)benzamide]",pest or weed control at 50 µg/cm2,[1],50 to 100%
same,pest or weed control at 50 µg/cm2,[2],50 to 100%
same,YFM,[3],A (80–100)
"O=C(Nc1ccc(F)c(Br)c1)c1cc(NC(=O)[C@H]2[C@H](c3cc(Cl)cc(Cl)c3)C2(Cl)Cl)ccc1Cl (relative stereo) [F1304, trans-N-(3-bromo-4-fluorophenyl)-2-chloro-5-(2,2-dichloro-3-(3,5-dichlorophenyl)cyclopropane-1-carboxamido)benzamide]",pest or weed control at 50 µg/cm2,[1],50 to 100%
same,pest or weed control at 50 µg/cm2,[2],50 to 100%
same,YFM,[3],A (80–100)
"O=C(Nc1ccc(F)cc1Br)c1cc(NC(=O)[C@H]2[C@H](c3cc(Cl)cc(Cl)c3)C2(Cl)Cl)ccc1Cl (relative stereo) [F1305, trans-N-(2-Bromo-4-fluorophenyl)-2-chloro-5-(2,2-dichloro-3-(3,5-dichlorophenyl)cyclopropane-1-carboxamido)benzamide]",pest or weed control at 50 µg/cm2,[1],50 to 100%
same,pest or weed control at 50 µg/cm2,[2],50 to 100%
same,YFM,[3],A (80–100)
"O=C(Nc1c(F)cc(F)cc1Br)c1cc(NC(=O)[C@H]2[C@H](c3cc(Cl)cc(Cl)c3)C2(Cl)Cl)ccc1Cl (relative stereo) [F1309, trans-N-(2-Bromo-4,6-difluorophenyl)-2-chloro-5-(2,2-dichloro-3-(3,5-dichlorophenyl)cyclopropane-1-carboxamido)benzamide]",pest or weed control at 50 µg/cm2,[1],50 to 100%
same,pest or weed control at 50 µg/cm2,[2],50 to 100%
same,YFM,[3],A (80–100)
"C=Cc1cc(NC(=O)c2cc(NC(=O)[C@H]3[C@H](c4cc(Cl)cc(Cl)c4)C3(Cl)Cl)ccc2Cl)ccc1F (relative stereo) [F1311, trans-2-chloro-5-(2,2-dichloro-3-(3,5-dichlorophenyl)cyclopropane-1-carboxamido)-N-(4-fluoro-3-vinylphenyl)benzamide]",pest or weed control at 50 µg/cm2,[1],50 to 100%
same,pest or weed control at 50 µg/cm2,[2],50 to 100%
same,YFM,[3],A (80–100)
"C=Cc1cc(F)ccc1NC(=O)c1cc(NC(=O)[C@H]2[C@H](c3cc(Cl)cc(Cl)c3)C2(Cl)Cl)ccc1Cl (relative stereo) [F1312, trans-2-Chloro-5-(2,2-dichloro-3-(3,5-dichlorophenyl)cyclopropane-1-carboxamido)-N-(4-fluoro-2-vinylphenyl)benzamide]",pest or weed control at 50 µg/cm2,[1],50 to 100%
same,pest or weed control at 50 µg/cm2,[2],50 to 100%
same,YFM,[3],A (80–100)
"C=Cc1ccc(NC(=O)c2cc(NC(=O)[C@H]3[C@H](c4cc(Cl)cc(Cl)c4)C3(Cl)Cl)ccc2Cl)c(F)c1 (relative stereo) [F1313, trans-2-Chloro-5-(2,2-dichloro-3-(3,5-dichlorophenyl)cyclopropane-1-carboxamido)-N-(2-fluoro-4-vinylphenyl)benzamide]",pest or weed control at 50 µg/cm2,[1],50 to 100%
same,pest or weed control at 50 µg/cm2,[2],50 to 100%
same,YFM,[3],A (80–100)
"C=Cc1c(F)ccc(NC(=O)c2cc(NC(=O)[C@H]3[C@H](c4cc(Cl)cc(Cl)c4)C3(Cl)Cl)ccc2Cl)c1F (relative stereo) [F1314, trans-2-Chloro-5-(2,2-dichloro-3-(3,5-dichlorophenyl)cyclopropane-1-carboxamido)-N-(2,4-difluoro-3-vinylphenyl)benzamide]",pest or weed control at 50 µg/cm2,[1],50 to 100%
same,pest or weed control at 50 µg/cm2,[2],50 to 100%
same,YFM,[3],A (80–100)
"C=Cc1cc(NC(=O)c2cc(NC(=O)[C@H]3[C@H](c4cc(Cl)cc(Cl)c4)C3(Cl)Cl)ccc2Cl)c(F)cc1F (relative stereo) [F1315, trans-2-Chloro-5-(2,2-dichloro-3-(3,5-dichlorophenyl)cyclopropane-1-carboxamido)-N-(2,4-difluoro-5-vinylphenyl)benzamide]",pest or weed control at 50 µg/cm2,[1],50 to 100%
same,pest or weed control at 50 µg/cm2,[2],50 to 100%
same,YFM,[3],A (80–100)
"C=Cc1cc(F)cc(F)c1NC(=O)c1cc(NC(=O)[C@H]2[C@H](c3cc(Cl)cc(Cl)c3)C2(Cl)Cl)ccc1Cl (relative stereo) [F1316, trans-2-Chloro-5-(2,2-dichloro-3-(3,5-dichlorophenyl)cyclopropane-1-carboxamido)-N-(2,4-difluoro-6-vinylphenyl)benzamide]",pest or weed control at 50 µg/cm2,[1],50 to 100%
same,pest or weed control at 50 µg/cm2,[2],50 to 100%
same,YFM,[3],A (80–100)
"C=Cc1cc(NC(=O)c2cc(NC(=O)[C@H]3[C@H](c4cc(Cl)cc(Cl)c4)C3(Cl)Cl)ccc2Cl)cc(F)c1F (relative stereo) [F1317, trans-2-Chloro-5-(2,2-dichloro-3-(3,5-dichlorophenyl)cyclopropane-1-carboxamido)-N-(3,4-difluoro-5-vinylphenyl)benzamide]",pest or weed control at 50 µg/cm2,[1],50 to 100%
same,pest or weed control at 50 µg/cm2,[2],50 to 100%
same,YFM,[3],A (80–100)
"C=C(F)c1cc(NC(=O)c2cc(NC(=O)[C@H]3[C@H](c4cc(Cl)cc(Cl)c4)C3(Cl)Cl)ccc2Cl)ccc1F (relative stereo) [F1318, trans-2-Chloro-5-(2,2-dichloro-3-(3,5-dichlorophenyl)cyclopropane-1-carboxamido)-N-(4-fluoro-3-(1-fluorovinyl)phenyl)benzamide]",pest or weed control at 50 µg/cm2,[1],50 to 100%
same,pest or weed control at 50 µg/cm2,[2],50 to 100%
same,YFM,[3],A (80–100)
"C=C(F)c1cc(F)ccc1NC(=O)c1cc(NC(=O)[C@H]2[C@H](c3cc(Cl)cc(Cl)c3)C2(Cl)Cl)ccc1Cl (relative stereo) [F1319, trans-2-Chloro-5-(2,2-dichloro-3-(3,5-dichlorophenyl)cyclopropane-1-carboxamido)-N-(4-fluoro-2-(1-fluorovinyl)phenyl)benzamide]",pest or weed control at 50 µg/cm2,[1],50 to 100%
same,pest or weed control at 50 µg/cm2,[2],50 to 100%
same,YFM,[3],A (80–100)
"C=C(F)c1ccc(NC(=O)c2cc(NC(=O)[C@H]3[C@H](c4cc(Cl)cc(Cl)c4)C3(Cl)Cl)ccc2Cl)c(F)c1 (relative stereo) [F1320, trans-2-Chloro-5-(2,2-dichloro-3-(3,5-dichlorophenyl)cyclopropane-1-carboxamido)-N-(2-fluoro-4-(1-fluorovinyl)phenyl)benzamide]",pest or weed control at 50 µg/cm2,[1],50 to 100%
same,pest or weed control at 50 µg/cm2,[2],50 to 100%
same,YFM,[3],A (80–100)
"C=C(F)c1c(F)ccc(NC(=O)c2cc(NC(=O)[C@H]3[C@H](c4cc(Cl)cc(Cl)c4)C3(Cl)Cl)ccc2Cl)c1F (relative stereo) [F1321, trans-2-Chloro-5-(2,2-dichloro-3-(3,5-dichlorophenyl)cyclopropane-1-carboxamido)-N-(2,4-difluoro-3-(1-fluorovinyl)phenyl)benzamide]",pest or weed control at 50 µg/cm2,[1],50 to 100%
same,pest or weed control at 50 µg/cm2,[2],50 to 100%
same,YFM,[3],A (80–100)
"C=C(F)c1cc(NC(=O)c2cc(NC(=O)[C@H]3[C@H](c4cc(Cl)cc(Cl)c4)C3(Cl)Cl)ccc2Cl)cc(F)c1F (relative stereo) [F1323, trans-2-Chloro-5-(2,2-dichloro-3-(3,5-dichlorophenyl)cyclopropane-1-carboxamido)-N-(3,4-difluoro-5-(1-fluorovinyl)phenyl)benzamide]",pest or weed control at 50 µg/cm2,[1],50 to 100%
same,pest or weed control at 50 µg/cm2,[2],50 to 100%
same,YFM,[3],A (80–100)
"Cc1cc(NCc2ccc(O)cc2)ccc1NC(=O)c1cc(NC(=O)[C@H]2[C@H](c3cc(Cl)cc(Cl)c3)C2(Cl)Cl)ccc1Cl (relative stereo) [F1353, trans-2-Chloro-5-(2,2-dichloro-3-(3,5-dichlorophenyl)cyclopropane-1-carboxamido)-N-(4-((4-hydroxybenzyl)amino)-2-methylphenyl)benzamide]",pest or weed control at 50 µg/cm2,[1],50 to 100%
same,pest or weed control at 50 µg/cm2,[2],50 to 100%
same,YFM,[3],A (80–100)
"O=C(Nc1ccc(F)c(NC(=O)C(F)(F)F)c1F)c1cc(NC(=O)[C@H]2[C@H](c3ccc(Cl)c(Br)c3)C2(Cl)Cl)ccc1Cl (relative stereo) [F1358, trans-5-(3-(3-Bromo-4-chlorophenyl)-2,2-dichlorocyclopropane-1-carboxamido)-2-chloro-N-(2,4-difluoro-3-(2,2,2-trifluoroacetamido)phenyl)benzamide]",pest or weed control at 50 µg/cm2,[1],50 to 100%
same,pest or weed control at 50 µg/cm2,[2],50 to 100%
same,YFM,[3],A (80–100)
